By IC50 is commonly meant the concentration that inhibits the measured activity by half.

The results in this text go back to patent publication US10780090B2, “Heteroaryl compounds useful as inhibitors of SUMO activating enzyme” (Millennium Pharmaceuticals, Inc., priority 2014, dated 2020).

SMILES strings stand for the structures.

For this test, the target named is recombinant human SAE enzyme (Homo sapiens (Human), UniProt Q9UBT2). Description: SAE HTRF enzyme assay. In kind it is biochemical. Conditions: for Percent Inhibition: Concentration 0.111 μM; for IC50: class symbols A/B/C. An outline of the steps: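 Enzyme reaction: 50 mM HEPES pH 7.5, 5 mM MgCl2, 250 μM GSH, 0.05% BSA, 0.5 μM ATP, 0.01 μM Ubc9-GST, 0.125 μM Sumo-Flag, 0.11 nM SAE; 105 min, 24° C. Stop/detect, 2 h, then HTRF. % inh or IC50.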
On the technique in general: TR-FRET usually uses a lanthanide donor and a delayed reading to cut background.

Chain of recombinant human SAE enzyme (Q9UBT2 whole entry): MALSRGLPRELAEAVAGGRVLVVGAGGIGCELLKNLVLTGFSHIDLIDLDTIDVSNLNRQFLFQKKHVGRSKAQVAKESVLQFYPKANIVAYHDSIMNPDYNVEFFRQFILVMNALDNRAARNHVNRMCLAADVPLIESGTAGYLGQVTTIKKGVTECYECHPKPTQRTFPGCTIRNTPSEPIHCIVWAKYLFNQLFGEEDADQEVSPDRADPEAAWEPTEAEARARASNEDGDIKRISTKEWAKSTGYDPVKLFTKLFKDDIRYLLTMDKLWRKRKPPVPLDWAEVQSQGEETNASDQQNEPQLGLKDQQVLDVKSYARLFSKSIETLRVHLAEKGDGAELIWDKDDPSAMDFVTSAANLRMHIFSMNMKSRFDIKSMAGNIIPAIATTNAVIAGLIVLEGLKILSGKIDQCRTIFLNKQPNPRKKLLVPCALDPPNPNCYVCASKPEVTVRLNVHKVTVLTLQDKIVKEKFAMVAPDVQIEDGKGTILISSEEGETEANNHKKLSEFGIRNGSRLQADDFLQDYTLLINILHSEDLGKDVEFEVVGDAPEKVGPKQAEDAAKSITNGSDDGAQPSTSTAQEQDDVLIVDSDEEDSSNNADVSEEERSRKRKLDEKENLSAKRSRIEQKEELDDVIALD
Chain of recombinant human SAE enzyme (Q9UBE0 whole entry partner): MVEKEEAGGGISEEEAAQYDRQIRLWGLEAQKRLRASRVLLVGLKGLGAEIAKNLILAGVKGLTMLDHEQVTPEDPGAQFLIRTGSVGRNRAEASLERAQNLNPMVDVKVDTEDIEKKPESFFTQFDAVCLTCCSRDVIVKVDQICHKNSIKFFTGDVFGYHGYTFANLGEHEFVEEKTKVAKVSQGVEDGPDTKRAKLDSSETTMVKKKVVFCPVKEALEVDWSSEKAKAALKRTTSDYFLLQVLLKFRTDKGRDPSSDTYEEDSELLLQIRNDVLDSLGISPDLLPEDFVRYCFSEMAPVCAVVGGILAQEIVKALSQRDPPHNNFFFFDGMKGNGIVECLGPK

For the compound `CC(N)(c1cccc(Cl)c1)c1csc(C(=O)c2cncnc2N[C@@H]2C[C@H](COS(N)(=O)=O)[C@@H](O)[C@H]2O)c1` (single isomer, unassigned) [I-8b, [(1R,2R,3S,4R)-4-{[5-({4-[(1S)-1-amino-1-(3-chlorophenyl)ethyl]-2-thienyl}carbonyl)pyrimidin-4-yl]amino}-2,3-dihydroxycyclopentyl]methyl sulfamate or [(1R,2R,3S,4R)-4-{[5-({4-[(1R)-1-amino-1-(3-chlorophenyl)ethyl]-2-thienyl}carbonyl)pyrimidin-4-yl]amino}-2,3-dihydroxycyclopentyl]methyl sulfamate], the “Percent Inhibition” value is listed as 99 and the IC50 was under 0.01 µM.

For `NS(=O)(=O)OC[C@H]1C[C@@H](Nc2ncncc2C(=O)c2cc([C@H](O)c3cccc(Cl)c3)c(Cl)s2)C[C@@H]1O` (single isomer, unassigned) [I-9a, [(1R,2S,4R)-4-{[5-({5-chloro-4-[(R)-(3-chlorophenyl)(hydroxy)methyl]-2-thienyl}carbonyl)pyrimidin-4-yl]amino}-2-hydroxycyclopentyl]methyl sulfamate or [(1R,2S,4R)-4-{[5-({5-chloro-4-[(S)-(3-chlorophenyl)(hydroxy)methyl]-2-thienyl}carbonyl)pyrimidin-4-yl]amino}-2-hydroxycyclopentyl]methyl sulfamate], the “Percent Inhibition” value is reported as 99 and the IC50 is under 0.01 µM.

`NS(=O)(=O)OC[C@H]1C[C@@H](Nc2ncncc2C(=O)c2cc([C@H](O)c3cccc(Cl)c3)c(Cl)s2)C[C@@H]1O` (single isomer, unassigned) [I-9b, [(1R,2S,4R)-4-{[5-({5-chloro-4-[(R)-(3-chlorophenyl)(hydroxy)methyl]-2-thienyl}carbonyl)pyrimidin-4-yl]amino}-2-hydroxycyclopentyl]methyl sulfamate or [(1R,2S,4R)-4-{[5-({5-chloro-4-[(S)-(3-chlorophenyl)(hydroxy)methyl]-2-thienyl}carbonyl)pyrimidin-4-yl]amino}-2-hydroxycyclopentyl]methyl sulfamate]: the “Percent Inhibition” value is listed as 97 and the 50% inhibitory concentration (IC50) was under 0.01 µM.

For the compound `N[C@@H](c1cccc(Br)n1)c1cc(C(=O)c2cncnc2N[C@@H]2C[C@H](COS(N)(=O)=O)[C@@H](O)[C@H]2O)sc1Cl` (single isomer, unassigned) [I-10a, [(1R,2R,3S,4R)-4-{[5-({4-[(R)-amino(6-bromopyridin-2-yl)methyl]-5-chloro-2-thienyl}carbonyl)pyrimidin-4-yl]amino}-2,3-dihydroxycyclopentyl]methyl sulfamate or [(1R,2R,3S,4R)-4-{[5-({4-[(S)-amino(6-bromopyridin-2-yl)methyl]-5-chloro-2-thienyl}carbonyl)pyrimidin-4-yl]amino}-2,3-dihydroxycyclopentyl]methyl sulfamate], the “Percent Inhibition” value amounted to 100 and the IC50 is under 0.01 µM.

Consider `N[C@@H](c1cccc(Br)n1)c1cc(C(=O)c2cncnc2N[C@@H]2C[C@H](COS(N)(=O)=O)[C@@H](O)[C@H]2O)sc1Cl` (single isomer, unassigned) [I-10b, [(1R,2R,3S,4R)-4-{[5-({4-[(R)-amino(6-bromopyridin-2-yl)methyl]-5-chloro-2-thienyl}carbonyl)pyrimidin-4-yl]amino}-2,3-dihydroxycyclopentyl]methyl sulfamate or [(1R,2R,3S,4R)-4-{[5-({4-[(S)-amino(6-bromopyridin-2-yl)methyl]-5-chloro-2-thienyl}carbonyl)pyrimidin-4-yl]amino}-2,3-dihydroxycyclopentyl]methyl sulfamate], for which the “Percent Inhibition” value is on record as 97 and the concentration for half-maximal inhibition (IC50) is under 0.01 µM.

Regarding `Cc1sc(C(=O)c2cncnc2N[C@@H]2C[C@H](COS(N)(=O)=O)[C@@H](O)C2)cc1[C@H](O)c1cccc(Cl)c1` (single isomer, unassigned) [I-11a, [(1R,2S,4R)-4-{[5-({4-[(R)-(3-chlorophenyl)(hydroxy)methyl]-5-methyl-2-thienyl}carbonyl)pyrimidin-4-yl]amino}-2-hydroxycyclopentyl]methyl sulfamate or [(1R,2S,4R)-4-{[5-({4-[(S)-(3-chlorophenyl)(hydroxy)methyl]-5-methyl-2-thienyl}carbonyl)pyrimidin-4-yl]amino}-2-hydroxycyclopentyl]methyl sulfamate], the “Percent Inhibition” value is 93 and the IC50 was under 0.01 µM.

Regarding `Cc1sc(C(=O)c2cncnc2N[C@@H]2C[C@H](COS(N)(=O)=O)[C@@H](O)C2)cc1[C@H](O)c1cccc(Cl)c1` (single isomer, unassigned) [I-11b, [(1R,2S,4R)-4-{[5-({4-[(R)-(3-chlorophenyl)(hydroxy)methyl]-5-methyl-2-thienyl}carbonyl)pyrimidin-4-yl]amino}-2-hydroxycyclopentyl]methyl sulfamate or [(1R,2S,4R)-4-{[5-({4-[(S)-(3-chlorophenyl)(hydroxy)methyl]-5-methyl-2-thienyl}carbonyl)pyrimidin-4-yl]amino}-2-hydroxycyclopentyl]methyl sulfamate], the “Percent Inhibition” value is recorded as 99 and the IC50 was under 0.01 µM.

Consider `C[C@](N)(c1cccc(Cl)c1)c1csc(C(=O)c2cncnc2N[C@@H]2C[C@H](COS(N)(=O)=O)[C@@H](O)C2)c1` (single isomer, unassigned) [I-12a, [(1R,2S,4R)-4-{[5-({4-[(1S)-1-amino-1-(3-chlorophenyl)ethyl]-2-thienyl}carbonyl)pyrimidin-4-yl]amino}-2-hydroxycyclopentyl]methyl sulfamate or [(1R,2S,4R)-4-{[5-({4-[(1R)-1-amino-1-(3-chlorophenyl)ethyl]-2-thienyl}carbonyl)pyrimidin-4-yl]amino}-2-hydroxycyclopentyl]methyl sulfamate], for which the “Percent Inhibition” value came out at 84 and the half-inhibitory concentration (IC50) was 0.01 to 0.1 µM.

As for `C[C@](N)(c1cccc(Cl)c1)c1csc(C(=O)c2cncnc2N[C@@H]2C[C@H](COS(N)(=O)=O)[C@@H](O)C2)c1` (single isomer, unassigned) [I-12b, [(1R,2S,4R)-4-{[5-({4-[(1S)-1-amino-1-(3-chlorophenyl)ethyl]-2-thienyl}carbonyl)pyrimidin-4-yl]amino}-2-hydroxycyclopentyl]methyl sulfamate or [(1R,2S,4R)-4-{[5-({4-[(1R)-1-amino-1-(3-chlorophenyl)ethyl]-2-thienyl}carbonyl)pyrimidin-4-yl]amino}-2-hydroxycyclopentyl]methyl sulfamate], the “Percent Inhibition” value stood at 100 and the IC50 was under 0.01 µM.

For `N[C@@H](c1cccc(Cl)c1)c1cc(C(=O)c2cncnc2N[C@@H]2C[C@H](COS(N)(=O)=O)[C@@H](O)[C@H]2O)sc1Cl` (single isomer, unassigned) [I-14a, [(1R,2R,3S,4R)-4-{[5-({4-[(S)-Amino(3-chlorophenyl)methyl]-5-chloro-2-thienyl)carbonyl)pyrimidin-4-yl]amino}-2,3-dihydroxycyclopentyl]methyl sulfamate or [(1R,2R,3S,4R)-4-{[5-({4-[(R)-Amino(3-chlorophenyl)methyl]-5-chloro-2-thienyl}carbonyl)pyrimidin-4-yl]amino}-2,3-dihydroxycyclopentyl]methyl sulfamate], the “Percent Inhibition” value is on record as 101 and the IC50 is under 0.01 µM.

In the case of `N[C@@H](c1cccc(Cl)c1)c1cc(C(=O)c2cncnc2N[C@@H]2C[C@H](COS(N)(=O)=O)[C@@H](O)[C@H]2O)sc1Cl` (single isomer, unassigned) [I-14b, [(1R,2R,3S,4R)-4-{[5-({4-[(S)-Amino(3-chlorophenyl)methyl]-5-chloro-2-thienyl)carbonyl)pyrimidin-4-yl]amino}-2,3-dihydroxycyclopentyl]methyl sulfamate or [(1R,2R,3S,4R)-4-{[5-({4-[(R)-Amino(3-chlorophenyl)methyl]-5-chloro-2-thienyl}carbonyl)pyrimidin-4-yl]amino}-2,3-dihydroxycyclopentyl]methyl sulfamate], the “Percent Inhibition” value is given as 95 and the IC50 is under 0.01 µM.

With `N[C@H](c1cccc(Cl)c1)c1cc(C(=O)c2cncnc2N[C@@H]2C[C@H](COS(N)(=O)=O)[C@@H](O)C2)sc1Cl` (single isomer, unassigned) [I-15a, [(1R,2S,4R)-4-{[5-({4-[(R)-amino(3-chlorophenyl)methyl]-5-chloro-2-thienyl}carbonyl)pyrimidin-4-yl]amino}-2-hydroxycyclopentyl]methyl sulfamate or [(1R,2S,4R)-4-{[5-({4-[(S)-amino(3-chlorophenyl)methyl]-5-chloro-2-thienyl}carbonyl)pyrimidin-4-yl]amino}-2-hydroxycyclopentyl]methyl sulfamate], the “Percent Inhibition” value was 66 and the IC50 was 0.01 to 0.1 µM.

Take `N[C@H](c1cccc(Cl)c1)c1cc(C(=O)c2cncnc2N[C@@H]2C[C@H](COS(N)(=O)=O)[C@@H](O)C2)sc1Cl` (single isomer, unassigned) [I-15b, [(1R,2S,4R)-4-{[5-({4-[(R)-amino(3-chlorophenyl)methyl]-5-chloro-2-thienyl}carbonyl)pyrimidin-4-yl]amino}-2-hydroxycyclopentyl]methyl sulfamate or [(1R,2S,4R)-4-{[5-({4-[(S)-amino(3-chlorophenyl)methyl]-5-chloro-2-thienyl}carbonyl)pyrimidin-4-yl]amino}-2-hydroxycyclopentyl]methyl sulfamate]: the “Percent Inhibition” value turned out to be 100 and the concentration for half-maximal inhibition (IC50) is under 0.01 µM.

`NS(=O)(=O)OC[C@H]1C[C@@H](Nc2ncncc2C(=O)c2cc([C@@H](O)c3cccc(Br)c3)c(Cl)s2)C[C@@H]1O` (single isomer, unassigned) [I-16a, [(1R,2S,4R)-4-{[5-({4-[(S)-(3-Bromophenyl)(hydroxy)methyl-5-chloro-2-thienyl}carbonyl)pyrimidin-4-yl]amino}-2-hydroxycyclopentyl]methyl sulfamate or [(1R,2S,4R)-4-{[5-({4-[(R)-(3-Bromophenyl)(hydroxy)methyl]-5-chloro-2-thienyl}carbonyl)pyrimidin-4-yl]amino}-2-hydroxycyclopentyl]methyl sulfamate]: the “Percent Inhibition” value is given as 99 and the IC50 is under 0.01 µM.
